Measured values reported in US20140249097A1, “Inhibition of HIF-1 activation for Anti-Tumor and Anti-Inflammatory responses” (priority 2010, published 2014).
Where a name gives a salt, the structure may show the parent alone.

Assays:
[1] = system: 4T1 (murine mammary adenocarcinoma); assay: Tumor growth delay, radiotherapy plus L-NAME, 4T1; format: in vivo, mice; conditions: 4T1 tumors, 3×6 Gy, L-NAME in drinking water
Excerpt: (§1) Female NIH Swiss nude mice, C57BL/6 mice were purchased from the National Cancer Institute (NCI; Fredrick, Md., United States of America). Mice with a genetic disruption of the inducible […] gene (C57BL/6 iNOS^−/−) were obtained from the Jackson Laboratory (Bar Harbor, Me., United States of America). Female BALB/c mice were obtained from Charles River Laboratories (Raleigh, N.C., United States of America). Animals were maintained and cared for in accordance with the Duke University Institutional Animal Care and Use Committee guidelines. For tumor implantation, 4T1 tumors were grown in nude mice or in syngeneic BALB/c mice, and B16F10 melanoma in syngeneic C57BL/6 or iNOS^−/− mice. About 5×10^5 wild type- or luciferase reporter gene-transfected tumor cells were injected subcutaneously (s.c.) into mice in 50 μl of PBS solution in the hind legs of ketamine/xylazine-anesthetized mice. When the tumors reached 6-8 mm in diameter, mice were randomly assigned to experimental groups. To image the luciferase activity, single dose of 6 Gy X-ray was given to the tumor on the right leg and this day was set as day 0. The luciferase activity was imaged everyday or every other day for ten days. For the tumor growth delay assay, radiotherapy was employed in its clinical mode: tumors were treated with 3 fractions of 6 Gy every other day from day 0.

[2] = system: tumor vasculature; assay: CD31 staining of tumor vasculature; format: in vivo, mice; conditions: L-NAME in conjunction with radiotherapy, tumors excised day 10, 4T1 and B16F10
Method: Vessel staining was performed on tumor cryoslices by using the VECTASTAIN® ABC and the NOVARED™ kits from Vector Laboratories (Burlingame, Calif., United States of America), according to the manufacturer's protocol. The primary anti-CD31 antibody (Santa Cruz Biotechnology, Santa Cruz, Calif.) was labeled with a secondary biotinylated anti-rabbit antibody (Jackson ImmunoResearch Labs, Inc.). Slices were counterstained using Harris' hematoxilin. Vascular density was determined by counting CD31-positive structures in 5 random fields per tumor.

[3] = system: B16F10 (murine melanoma); assay: Tumor growth delay, radiotherapy plus L-NAME, B16F10; format: in vivo, mice; conditions: B16F10 tumors, 3×6 Gy, L-NAME in drinking water
Excerpt: as §1

[4] = system: STAT1; assay: Western blotting of STAT1 and phospho-STAT1 in 4T1ODD-luc cells; format: cell-based, mouse; conditions: doxorubicin 1 μg/ml
Method: (§2) Cell nuclear proteins were extracted using the NucBuster protein extraction kit (Novagen, Gibbstown, N.J., United States of America). Total cell lysates or cell nuclear extractions were quantified using a protein assay reagent (Bio-Rad). Equal amounts of protein sample were separated by Bis-HCl gel (Bio-Rad) and transferred to a […] Immun-Blot PVDF membrane (Bio-Rad).

[5] = system: iNOS; assay: Real-time PCR of iNOS mRNA in 4T1ODD-luc cells; format: cell-based, mouse; conditions: doxorubicin vs control treatment
Method: Total RNA was prepared using the miRVana extraction kit (Applied Biosystems, Austin, Tex., United States of America). 1 μg of total RNA was reverse transcribed into cDNA using the iScript cDNA synthesis kit (BioRad, Hercules, Calif., United States of America). Real-time PCR was performed on an ABI7900HT Fast Real-Time PCR System using Power SYBRGreen PCR Mix (Applied Biosystems). PCR products were verified by melting curves. The threshold cycle (CT) values for each gene were normalized to expression levels of β-actin. The primers used were as follows: mouse iNOS, forward 5′-[…]-3′ (SEQ ID NO: 22); reverse 5′-[…]-3′ (SEQ ID NO: 23); the same β-actin primers were used for both human and mouse cell lines, forward 5′-[…]-3′ (SEQ ID NO: 24); and reverse 5′-[…]-3′ (SEQ ID NO: 25).

[6] = system: tumor-activated macrophages; assay: CD68 staining of tumor-activated macrophages in orthotopic 4T1ODD-luc tumors; format: in vivo, mice; conditions: doxorubicin-treated vs saline-treated tumors
Method: (§3) Five mice from a doxorubicin-treated group or a control group that received saline were sacrificed on days 0, 1, 4, 7 and 16. The hypoxia marker pimonidazole (70 mg/kg i.p., NPI, Raleigh, N.C., United States of America) and the perfusion marker dye Hoechst 33342 (1 mg/mouse i.v., Sigma-Aldrich) were administered as previously described (Cao et al., 2005). Upon excision, tumors were snap-frozen in liquid nitrogen, stored at −80° C., and cut into 10 μm frozen sections. HIF-1α fluorescent staining was performed with anti-HIF-1α antibody (Novus). Direct pimonidazole labeling was performed using Hypoxyprobe (mouse monoclonal IgG1, NPI, Raleigh, N.C., United States of America) and Zenon Alexa Fluor 555 mouse IgG labeling kit (Invitrogen). Entire tumor sections were imaged by scanning fluorescent microscopy. Individual scanned images were then reconstructed into one composite image of the entire section by Metamorph. […] Eight random fields (10×) per frozen section were analyzed to determine the mean tumor vascular fraction as the percentage of vessel area in total tumor area in each field. Cell proliferation was determined by immunostaining with a rabbit polyclonal anti-Ki67 antibody (ab15580, 1:100 dilution, Abcam, Cambridge, Massachusettes, United States of America) and an Alexa 594-conjugated goat anti-rabbit IgG antibody (1:300 dilution, Invitrogen). […]

[7] = system: HIF-1α; assay: Bioluminescent imaging of orthotopic 4T1ODD-luc tumors in nude mice; format: in vivo
Method: (§4) HIF-1α ODD-luciferase reporter activity was detected and quantified by the Xenogen IVIS bioluminescence imaging system (Xenogen Corporation, Alameda, Calif., United States of America) as previously described (Li et al., 2007). For in vitro imaging of cultured cells, 1×10^5 4 T1ODD-luc cells per well of 12-well plates were cultured with 2 ml culture medium for 24 hours. Then the cells were treated with doxorubicin hydrochloride (0.1, 1, or 10 μg/ml, Bedford Laboratories, Bedford, Ohio, United States of America) or an equal volume of control vehicle for 3 days under normoxic conditions (21% O2, 5% CO2). […] The activity of HIF-1α luciferase reporter was quantified daily. In animal studies, the bioluminescence of each tumor was detected on day 0 (before doxorubicin treatment) and on post-treatment days 1-7, 10, 13, and 16. During each imaging session mice were anesthetized with inhaled isoflurane and imaged 10 minutes after intraperitoneal (i.p.) injection of luciferin (150 mg/kg). Tumor bioluminescence intensity was normalized to the tumor volume at each time point.
5×10^6 4 T1ODD-luc tumor cells in 200 μl PBS were injected orthotopically in the right thoracic mammary fat pad of female NCr/nu nude mice (Moeller et al., 2004). Tumor volumes were calculated as follows: volume=(length×width^2×π)/6. When tumor size reached 7 mm in diameter, animals were randomized into two groups: the control mice were injected with 100 μl saline and the treated mice were injected once with the maximal tolerated dose (MTD) of doxorubicin (10 mg/kg) via tail vein (Vanhoefer et al., 1997). Tumor volume and luciferase reporter activity in vivo were measured on days 0, 1-7, 10, 13 and 16.

[8] = system: VEGF; assay: Mouse VEGF ELISA of 4T1ODD-luc conditioned medium; format: cell-based; conditions: normoxic, doxorubicin 0.1, 1, and 10 μg/ml
Method: 1×10^5 4 T1ODD-luc cells per well of 12-well plate were cultured with 1 ml cell culture medium overnight. The cells were treated with 0.1, 1, or 10 μg/ml of doxorubicin or without doxorubicin for 24, 48, and 72 hours. Secreted mouse VEGF in the conditioned medium at each time point was quantified by mouse VEGF ELISA kit (R & D Systems, Minneapolis, Minn., United States of America) and normalized to the number of living cells.

[9] = system: HIF-1α; assay: Immunohistochemical staining of HIF-1α in orthotopic 4T1ODD-luc tumors; format: in vivo, mice; conditions: MTD doxorubicin vs saline, post-treatment days 1, 4, and 7
Method: as §3

[10] = system: HIF-1α; assay: HIF-1α ODD-luciferase reporter in normoxic 4T1ODD-luc cells; format: cell-based, mouse
Method: as §4

[11] = system: HIF-1α; assay: Western blotting of HIF-1α in MCF-7 cells; format: cell-based, human; conditions: normoxic MCF-7 cells
Method: as §2

[12] = system: perfused tumor fraction; assay: Hoechst 33342 labeling of tumor perfusion in orthotopic 4T1ODD-luc tumors; format: in vivo, mice; conditions: doxorubicin-treated vs control tumors
Method: as §3

[13] = system: iNOS; assay: Western blotting of iNOS in 4T1ODD-luc cells; format: cell-based, mouse
Method: as §2

[14] = system: HIF-1α; assay: Western blotting of HIF-1α in 4T1ODD-luc cells; format: cell-based, mouse; conditions: normoxic, total cell lysate and nuclear extraction, 48 hours post-treatment
Method: as §2

[15] = system: nitric oxide; assay: Flow cytometry of intracellular nitric oxide (DAF-FM) in 4T1ODD-luc cells; format: cell-based, mouse; conditions: 1 μg/ml and 5 μg/ml doxorubicin, 48 hours, vs control
Method: To detect intracellular nitric oxide levels, 1×10^6 4 T1ODD-luc cells were plated per 10-cm cell culture dish with 8 ml of cell culture medium. Doxorubicin (1 μg/ml and 5 μg/ml) or an equal volume of control solvent was added into the cell culture medium the next day and treatment continued for 48 hours. […] Equal amounts of solvent were added for the control group. To quantify intracellular nitric oxide, a single cell suspension was made after trypsinization. 2 ml of 5 uM nitric oxide-specific probe DAF-FM diacetate (4-amino-5-methylamino-2′,7′-difluorofluorescein diacetate) (Invitrogen) were incubated with each cell sample at room temperature in darkness for 30 minutes. The cells were washed with PBS and centrifuged to remove the excess DAF-FM diacetate probe. The cells were resuspended into 500 ul of phenol-free DMEM and incubated for another 20 minutes for complete intracellular deacetylation of the probe. The mean fluorescence intensity of the deacetylated DAF-FM reacted with nitric oxide was quantified by FACSCalibur flow cytometer in FITC channel (Becton Dickinson, Franklin Lakes, N.J., United States of America).

[16] = system: tumor vasculature; assay: Fluorescent staining of tumor vasculature in orthotopic 4T1ODD-luc tumors; format: in vivo, mice
Method: Five mice from a doxorubicin-treated group or a control group that received saline were sacrificed on days 0, 1, 4, 7 and 16. The hypoxia marker pimonidazole (70 mg/kg i.p., NPI, Raleigh, N.C., United States of America) and the perfusion marker dye Hoechst 33342 (1 mg/mouse i.v., Sigma-Aldrich) were administered as previously described (Cao et al., 2005). Upon excision, tumors were snap-frozen in liquid nitrogen, stored at −80° C., and cut into 10 μm frozen sections. HIF-1α fluorescent staining was performed with anti-HIF-1α antibody (Novus). Direct pimonidazole labeling was performed using Hypoxyprobe (mouse monoclonal IgG1, NPI, Raleigh, N.C., United States of America) and Zenon Alexa Fluor 555 mouse IgG labeling kit (Invitrogen). Entire tumor sections were imaged by scanning fluorescent microscopy. Individual scanned images were then reconstructed into one composite image of the entire section by Metamorph. Tumor vasculature was stained by fluorescein-labeled Griffonia simplicifolia lectin I (isolectin B4) (1:200 dilution, Vector Laboratories, Burlingame, Calif., United States of America) as previously described (Cao et al., 2007). Eight random fields (10×) per frozen section were analyzed to determine the mean tumor vascular fraction as the percentage of vessel area in total tumor area in each field. Cell proliferation was determined by immunostaining with a rabbit polyclonal anti-Ki67 antibody (ab15580, 1:100 dilution, Abcam, Cambridge, Massachusettes, United States of America) and an Alexa 594-conjugated goat anti-rabbit IgG antibody (1:300 dilution, Invitrogen). Tumor activated macrophages were stained with rat anti-mouse CD68 antibody (1:100 dilution, Serotec, Raleigh, N.C., United States of America) and an Alexa 488-conjugated anti-rat IgG antibody (1:200 dilution, Invitrogen).

[17] = system: hypoxic tumor fraction; assay: Pimonidazole staining of tumor hypoxia in orthotopic 4T1ODD-luc tumors; format: in vivo, mice; conditions: doxorubicin-treated vs control tumors
Method: as §3

## COC(=O)[C@@H](N)CCCNC(=N)N[N+](=O)[O-] [L-NAME, Nω-nitro-L-arginine methyl ester]
[1]
  tumor growth delay, therapeutic efficacy of radiotherapy with L-NAME: significantly enhanced the therapeutic efficacy of radiotherapy
[2]
  tumor vasculature (CD31+ vascular density): significantly reduced tumor vasculature
[3]
  tumor growth delay, therapeutic efficacy of radiotherapy with L-NAME: significantly enhanced the therapeutic efficacy of radiotherapy

## COc1cccc2c1C(=O)c1c(O)c3c(c(O)c1C2=O)C[C@@](O)(C(=O)CO)C[C@@H]3O[C@H]1C[C@H](N)[C@H](O)[C@H](C)O1 [doxorubicin, doxorubicin hydrochloride]
[4]
  STAT1 expression: upregulated the expression of STAT1
  STAT1 phosphorylation (Tyr701 and Ser727): promoted the activation of STAT1
[5]
  iNOS mRNA level: significantly enhanced iNOS transcription
[6]
  fraction of tumor-activated macrophages (CD68): no significant difference
[7]; doxorubicin 10 mg/kg i.v. once vs saline, day 16
  HIF-1α reporter activity in tumors on day 16: fell to a level similar to that in the control tumors
[7]; doxorubicin 10 mg/kg i.v. once vs saline, from 3 days post-treatment
  HIF-1α reporter activity in tumors: significantly elevated the HIF-1α reporter activity
[7]; in vivo
  peak in HIF-1 activation after doxorubicin treatment: 3 to 5 days
[7]; mouse, in vivo
  temporal course of doxorubicin-induced normoxic HIF-1α accumulation: 3-5 days post-treatment
[8]
  secreted VEGF level: significantly elevated the secreted VEGF level
[9]
  tumor HIF-1α positive fraction: significantly increased the HIF-1α fraction
[10]; 1 μg/ml doxorubicin
  HIF-1α reporter activity, comparison of concentrations: most potent upregulation
[10]; doxorubicin 0.1, 1, or 10 μg/ml, 48 hours post-treatment
  HIF-1α reporter activity: significant increase in HIF-1α reporter activity
[11]
  HIF-1α protein: led to normoxic HIF-1α accumulation
[12]
  perfused tumor fraction (Hoechst 33342 labeling): no significant difference
[13]; doxorubicin 1 μg/ml, normoxic conditions
  iNOS expression: stimulated iNOS expression
[13]; doxorubicin alone, first 24 hours post-treatment
  iNOS expression: initial decrease in iNOS expression
[13]; doxorubicin, 48 hours post-treatment
  iNOS expression: increase in iNOS expression
[14]
  HIF-1α protein expression: enhanced
[15]
  intracellular NO levels: increased intracellular NO levels
[16]; doxorubicin vs control, first 24 hours
  relative tumor vascular fraction: significant decrease in tumor vascular fraction
[16]; doxorubicin vs saline, day 4 post-treatment
  tumor vessels by fluorescent staining: more tumor vessels
[16]; doxorubicin vs saline, day 16
  relative tumor vascular fraction: still significantly higher compared to the saline-treated tumors
[16]; doxorubicin-treated tumors, post-treatment day 4 (peak)
  mean relative tumor vascular fraction: even higher than before chemotherapy treatment
[17]
  hypoxic tumor fraction (pimonidazole staining): no significant difference
